{"source": "patent US6745512B1", "about": "(priority 1990, dated 2004)", "test_system": "harmful organisms such as smut (Ustilago nuda), Fusaria and Septoria nodorum", "assay": "combined use of low energy electrons with subsequent fungicidal treatment of the seeds", "details": "low energy electrons followed by fungicidal treatment of the seeds; 15 g, 30 g/100 kg seeds", "data": [{"compound": "Cc1oc(C)c(C(=O)Nc2ccccc2)c1C", "note": "[Methfuroxam]", "values": [{"measurement": "harmful organisms combated", "value": "95 to 100", "unit": "%"}]}]}
